# Test results taken from patent US4376858A, “2-4-Diamino-5-methyl-6-[(3,4,5-trimethoxyanilino)methyl]quinazoline salts” (Warner Lambert Company, priority 1982, dated 1983).
# Structures can show the parent of a compound that is named as a salt.
# What was measured:
# [1] = Solubility of prepared 2,4-diamino-5-methyl-6-[(3,4,5-trimethoxyanilino)methyl]quinazoline salts in water; type: physicochemical; settings: Table II, Method B: saturated 5.0 ml H2O overnight, filtrate diluted with 0.01 N HCl, 1440 min
# [2] = as above; type: physicochemical; settings: for Solubility in water: Table II, Method A: saturated 2.0 ml H2O overnight, filtrate diluted with methanol, 1440 min; for Filtrate pH / Solubility: Table III, Prepared Salt; for water solubility (in words): qualitative conclusion from Tables I and II
# Protocol: Method A: Saturated 2.0 ml H2 O overnight, 0.5 ml of filtrate diluted to 10.0 ml with methanol, added 1 drop of 6 N KOH to UV cell.
# [3] = Solubility of the base 2,4-diamino-5-methyl-6-[(3,4,5-trimethoxyanilino)methyl]quinazoline in aqueous acids (shake-out); type: physicochemical; settings: for Base Solubility in acid soln.: Table I; for Solubility / Filtrate pH: Table III
# bacteria = settings: reported in Great Britain Patent Specification No. 1,345,502; cited from earlier work
# neoplasms = settings: Biochemical Pharmacology 28, 1983-1987; Cancer Research 39, 293-304; cited from earlier work
# malaria = settings: reported in Great Britain Patent Specification No. 1,345,502; cited from earlier work
# [4] = Stability and solid form of the salts; type: physicochemical; settings: qualitative
# [5] = acid conc. .1 M, acid/base 2/1, * not saturated (isethionic, ethoxyacetic)
# [6] = 0.1 M acid per method (head: 1 M soln.), 0.05 M base, shaken 4-12 hours, UV 321 nm
# [7] = lines marked *: .05 M acid, 1/1 acid/base
# [8] = listed as 2,4-diamino-5-methyl-6-[(3,4,5-trimethoxyanilino)methyl]quinazoline glucuronate
# [9] = acid conc. .06 M, acid/base 1/1
structure (smiles),measurement,setting,value
COc1cc(NCc2ccc3nc(N)nc(N)c3c2C)cc(OC)c1OC [3-Hydroxypropyl sulfonate],Solubility in water,[1],4.73 mg base/ml
COc1cc(NCc2ccc3nc(N)nc(N)c3c2C)cc(OC)c1OC [Acetate],Solubility in water,[2],1.72 mg base/ml
COc1cc(NCc2ccc3nc(N)nc(N)c3c2C)cc(OC)c1OC [Benzene sulfonate],Filtrate pH,[2]; listed as Benzene sulfonic,4.45
same,Solubility,[2]; listed as Benzene sulfonic,1.24 mg base/ml
same,Solubility in water,[1],1.24 mg base/ml
same,Base Solubility in acid soln.,"[3]; lines marked *: .05 M acid, 1/1 acid/base, listed as Benzene sulfonic",1.89 mg base/ml
same,Base Solubility in acid soln.,"[3]; 0.1 M acid per method (head: 1 M soln.), 0.05 M base, shaken 4-12 hours, UV 321 nm, listed as Benzene sulfonic",7.17 mg base/ml
same,Solubility,"[3]; acid conc. .05 M, acid/base 1/1, * not saturated (isethionic), listed as Benzene sulfonic",1.89 mg base/ml
same,Filtrate pH,"[3]; acid conc. .05 M, acid/base 1/1, listed as Benzene sulfonic",2.95
same,Solubility,"[3]; acid conc. .1 M, acid/base 2/1, * not saturated (isethionic, ethoxyacetic), listed as Benzene sulfonic",7.17 mg base/ml
same,Filtrate pH,"[3]; acid conc. .1 M, acid/base 2/1, listed as Benzene sulfonic",2.95
COc1cc(NCc2ccc3nc(N)nc(N)c3c2C)cc(OC)c1OC [Ethane sulfonate],Solubility in water,[1],2.64 mg base/ml
COc1cc(NCc2ccc3nc(N)nc(N)c3c2C)cc(OC)c1OC [Ethoxyacetate],Solubility,[2]; listed as Ethoxyacetic,6.3 mg base/ml
same,Solubility in water,[1],6.3 mg base/ml
same,Base Solubility in acid soln.,"[3]; lines marked *: .05 M acid, 1/1 acid/base, listed as Ethoxyacetic",19.7 mg base/ml
same,Base Solubility in acid soln.,"[3]; 0.1 M acid per method (head: 1 M soln.), 0.05 M base, shaken 4-12 hours, UV 321 nm, listed as Ethoxyacetic",19.5 mg base/ml
same,Solubility,"[3]; acid conc. .065 M, acid/base 1/1, * not saturated",19.7 mg base/ml
same,Solubility,[3]; [5],19.5 mg base/ml
"COc1cc(NCc2ccc3nc(N)nc(N)c3c2C)cc(OC)c1OC [Free base, 2,4-diamino-5-methyl-6-[(3,4,5-trimethoxyanilino)methyl]quinazoline]",Solubility in water,[2],0.2 mg base/ml
same,antibacterial activity,bacteria,exhibiting antimalarial and antibacterial activity
same,antineoplastic activity,neoplasms,exhibit antineoplastic activity
same,Solubility in water,[1],0.1 mg base/ml
same,antimalarial activity,malaria,exhibiting antimalarial and antibacterial activity
COc1cc(NCc2ccc3nc(N)nc(N)c3c2C)cc(OC)c1OC [Galacturonic],solid form (in words),[4]; listed as galacturonate,undesirable amorphous form
same,Base Solubility in acid soln.,[3]; [6],25.1 mg base/ml
COc1cc(NCc2ccc3nc(N)nc(N)c3c2C)cc(OC)c1OC [Gentisate],Solubility in water,[2],1.4-7.06 mg base/ml
same,Solubility in water,[1],0.28 mg base/ml
COc1cc(NCc2ccc3nc(N)nc(N)c3c2C)cc(OC)c1OC [Gluconatete],Solubility in water,[1],2.55 mg base/ml
COc1cc(NCc2ccc3nc(N)nc(N)c3c2C)cc(OC)c1OC [Gluconic],solid form (in words),[4]; listed as gluconate,undesirable amorphous form
same,Base Solubility in acid soln.,[3]; [7],19.8 mg base/ml
"COc1cc(NCc2ccc3nc(N)nc(N)c3c2C)cc(OC)c1OC [Glucuronate, 2,4-Diamino-5-methyl-6-[(3,4,5-trimethoxyanilino)methyl]quinazoline D-glucuronate]",water solubility (in words),[2]; [8],higher degree of solubility
same,solid form (in words),[4]; [8],powdery rather than crystalline
same,Solubility in water,[1],109.4 mg base/ml
same,Base Solubility in acid soln.,"[3]; 0.1 M acid per method (head: 1 M soln.), 0.05 M base, shaken 4-12 hours, UV 321 nm, listed as Glucuronic",34.35 mg base/ml
COc1cc(NCc2ccc3nc(N)nc(N)c3c2C)cc(OC)c1OC [Glycolic],Filtrate pH,[2],5.30
same,Solubility,[2],2.55 mg base/ml
same,Base Solubility in acid soln.,[3]; [7],4.73 mg base/ml
same,Base Solubility in acid soln.,[3]; [6],4.13 mg base/ml
same,Filtrate pH,"[3]; acid conc. .1 M, acid/base 1/1",3.28
same,Solubility,"[3]; acid conc. .1 M, acid/base 1/1",4.73 mg base/ml
same,Filtrate pH,"[3]; acid conc. .1 M, acid/base 2/1",3.00
same,Solubility,[3]; [5],4.13 mg base/ml
COc1cc(NCc2ccc3nc(N)nc(N)c3c2C)cc(OC)c1OC [Hydrochloride],Solubility in water,[2],3.22 mg base/ml
"COc1cc(NCc2ccc3nc(N)nc(N)c3c2C)cc(OC)c1OC [Isethionate, 2,4-Diamino-5-methyl-6-[(3,4,5-trimethoxyanilino)methyl]quinazoline monoisethionate]",Solubility in water,[2],23.93 mg base/ml
same,Filtrate pH,[2]; listed as Isethionic,5.30
same,Solubility,[2]; listed as Isethionic,24.8 mg base/ml
same,water solubility (in words),[2],highly water soluble
same,solid form (in words),[4],crystalline
same,stability (in words),[4],stable
same,Solubility in water,[1],24.78 mg base/ml
same,Base Solubility in acid soln.,"[3]; lines marked *: .05 M acid, 1/1 acid/base, listed as Isethionic",17.3 mg base/ml
same,Base Solubility in acid soln.,"[3]; 0.1 M acid per method (head: 1 M soln.), 0.05 M base, shaken 4-12 hours, UV 321 nm, listed as Isethionic",16.3 mg base/ml
same,Solubility,"[3]; acid conc. .05 M, acid/base 1/1, * not saturated (isethionic)",17.34 mg base/ml
same,Filtrate pH,"[3]; acid conc. .05 M, acid/base 1/1, listed as Isethionic",3.70
same,Solubility,[3]; [5],16.33 mg base/ml
same,Filtrate pH,"[3]; acid conc. .1 M, acid/base 2/1, listed as Isethionic",1.83
COc1cc(NCc2ccc3nc(N)nc(N)c3c2C)cc(OC)c1OC [Lactate],Solubility in water,[2],4.34 mg base/ml
COc1cc(NCc2ccc3nc(N)nc(N)c3c2C)cc(OC)c1OC [Methane sulfonic],Filtrate pH,[2],5.32
same,Solubility,[2],4.9 mg base/ml
same,Base Solubility in acid soln.,[3]; [7],6.49 mg base/ml
same,Base Solubility in acid soln.,[3]; [6],9.83 mg base/ml
same,Filtrate pH,[3]; [9],3.00
same,Solubility,[3]; [9],6.5 mg base/ml
same,Solubility,"[3]; acid conc. .1 M, acid/base 1/.9",8.74 mg base/ml
COc1cc(NCc2ccc3nc(N)nc(N)c3c2C)cc(OC)c1OC [N--(Morpholine)ethane-2-sulfonic],Base Solubility in acid soln.,[3]; [6],11.2 mg base/ml
COc1cc(NCc2ccc3nc(N)nc(N)c3c2C)cc(OC)c1OC [d-Tartaric],Base Solubility in acid soln.,[3]; [6],1.57 mg base/ml
COc1cc(NCc2ccc3nc(N)nc(N)c3c2C)cc(OC)c1OC [p-Toluene sulfonic],Base Solubility in acid soln.,[3]; [6],2.74 mg base/ml
